This is an account of results in BindingDB's records for doi:10.1007/bf00178951 (Sandoz Pharma, 1994).

Some results are limits rather than exact numbers.

This test addresses G_PROTEIN_RECEP_F1_2 domain-containing protein (Sus scrofa, UniProt I3LCE8).

As usually defined, the Ki is a measure of affinity in units of concentration, obtained from inhibition or displacement. Lower therefore signals a stronger hold on the target.

Chain of G_PROTEIN_RECEP_F1_2 domain-containing protein (I3LCE8 whole entry): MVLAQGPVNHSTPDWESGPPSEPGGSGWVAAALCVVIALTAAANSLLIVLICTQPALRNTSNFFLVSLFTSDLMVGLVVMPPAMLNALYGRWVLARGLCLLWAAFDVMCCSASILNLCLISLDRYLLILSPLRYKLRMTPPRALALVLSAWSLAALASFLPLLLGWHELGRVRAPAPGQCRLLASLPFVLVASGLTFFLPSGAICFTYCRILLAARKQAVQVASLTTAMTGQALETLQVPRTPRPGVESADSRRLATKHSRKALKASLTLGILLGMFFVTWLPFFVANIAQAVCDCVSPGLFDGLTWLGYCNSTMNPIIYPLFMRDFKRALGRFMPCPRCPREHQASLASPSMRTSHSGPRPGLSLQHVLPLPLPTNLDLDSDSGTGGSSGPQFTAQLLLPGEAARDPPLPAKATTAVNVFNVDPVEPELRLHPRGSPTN

`O=C(c1ccc(F)cc1)C1CCN(CCn2c(=O)[nH]c3ccccc3c2=O)CC1` [3-(2-{4-[(4-fluorophenyl)carbonyl]piperidin-1-yl}ethyl)-1,2,3,4-tetrahydroquinazoline-2,4-dione]: the Ki is > 10 µM.
